Measured values: publication PMC5540273, “Progress towards a public chemogenomic set for protein kinases and a call for contributions” (PLoS ONE, 2017)

Assays:
Test in all cases: KINOMEscan competition binding
[1] = biological target: AMPK-alpha1 (Homo sapiens, UniProt Q13131); conditions: read-out: %Inh AMPK-alpha1
[2] = biological target: BRAF (Homo sapiens, UniProt P15056); conditions: read-out: %Inh BRAF
[3] = biological target: T1, MAP3K15 (Homo sapiens, UniProt Q6ZN16); conditions: read-out: %Inh MAP3K15
T1 sequence (Q6ZN16 1-1313): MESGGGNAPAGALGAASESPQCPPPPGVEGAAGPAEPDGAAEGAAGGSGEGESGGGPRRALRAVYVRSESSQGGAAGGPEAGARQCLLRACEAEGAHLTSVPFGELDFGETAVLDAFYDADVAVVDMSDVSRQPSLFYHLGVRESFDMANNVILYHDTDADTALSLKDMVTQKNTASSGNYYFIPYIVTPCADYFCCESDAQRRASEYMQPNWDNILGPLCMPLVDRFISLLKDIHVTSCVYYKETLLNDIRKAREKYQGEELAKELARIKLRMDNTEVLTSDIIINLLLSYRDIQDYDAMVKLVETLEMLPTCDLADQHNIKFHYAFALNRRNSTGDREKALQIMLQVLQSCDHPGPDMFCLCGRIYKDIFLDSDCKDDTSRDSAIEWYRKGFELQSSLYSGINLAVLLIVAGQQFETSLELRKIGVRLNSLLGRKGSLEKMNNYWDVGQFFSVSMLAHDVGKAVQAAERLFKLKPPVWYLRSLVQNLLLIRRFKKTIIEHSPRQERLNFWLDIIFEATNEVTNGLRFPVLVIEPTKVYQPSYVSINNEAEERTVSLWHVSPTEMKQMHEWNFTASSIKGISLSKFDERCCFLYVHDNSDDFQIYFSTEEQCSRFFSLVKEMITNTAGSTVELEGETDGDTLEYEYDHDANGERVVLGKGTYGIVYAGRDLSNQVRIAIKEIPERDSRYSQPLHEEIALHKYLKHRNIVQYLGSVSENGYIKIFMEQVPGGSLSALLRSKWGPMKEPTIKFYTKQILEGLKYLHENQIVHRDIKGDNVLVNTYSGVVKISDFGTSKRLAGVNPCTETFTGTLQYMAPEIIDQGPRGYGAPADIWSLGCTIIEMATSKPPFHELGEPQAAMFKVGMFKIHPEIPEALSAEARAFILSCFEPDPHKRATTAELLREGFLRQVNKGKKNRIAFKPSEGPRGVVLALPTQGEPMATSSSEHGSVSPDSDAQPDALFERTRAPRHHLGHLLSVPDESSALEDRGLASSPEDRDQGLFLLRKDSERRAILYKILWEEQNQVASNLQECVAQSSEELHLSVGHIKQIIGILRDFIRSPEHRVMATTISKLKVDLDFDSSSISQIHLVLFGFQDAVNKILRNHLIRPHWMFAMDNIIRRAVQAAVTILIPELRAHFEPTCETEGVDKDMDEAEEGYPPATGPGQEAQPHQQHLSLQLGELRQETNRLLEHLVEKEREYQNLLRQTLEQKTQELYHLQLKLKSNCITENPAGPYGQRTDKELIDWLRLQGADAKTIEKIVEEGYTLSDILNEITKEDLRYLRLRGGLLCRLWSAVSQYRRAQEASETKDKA

[4] = biological target: T2, GRK3 (Homo sapiens, UniProt P35626); conditions: read-out: %Inh GRK3
T2 sequence (P35626 1-688): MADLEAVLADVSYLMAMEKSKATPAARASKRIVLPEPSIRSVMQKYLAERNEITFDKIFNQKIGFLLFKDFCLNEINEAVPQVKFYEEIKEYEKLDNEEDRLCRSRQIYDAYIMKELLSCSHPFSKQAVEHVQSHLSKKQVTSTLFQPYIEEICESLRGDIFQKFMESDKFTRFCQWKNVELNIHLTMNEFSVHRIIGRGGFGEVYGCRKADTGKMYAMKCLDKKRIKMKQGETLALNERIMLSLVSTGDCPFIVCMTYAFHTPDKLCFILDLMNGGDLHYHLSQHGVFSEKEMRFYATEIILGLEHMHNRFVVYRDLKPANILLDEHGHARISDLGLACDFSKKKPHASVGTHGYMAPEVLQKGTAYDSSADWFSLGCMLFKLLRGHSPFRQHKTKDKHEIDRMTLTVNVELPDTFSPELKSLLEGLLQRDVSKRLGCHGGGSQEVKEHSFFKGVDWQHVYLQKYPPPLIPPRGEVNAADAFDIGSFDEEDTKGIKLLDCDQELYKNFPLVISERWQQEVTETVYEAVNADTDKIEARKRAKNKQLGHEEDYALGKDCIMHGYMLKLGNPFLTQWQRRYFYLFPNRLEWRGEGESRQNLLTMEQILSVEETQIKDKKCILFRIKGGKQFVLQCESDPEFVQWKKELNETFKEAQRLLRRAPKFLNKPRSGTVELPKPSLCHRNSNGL

[5] = biological target: T3, HIPK4 (Homo sapiens, UniProt Q8NE63); conditions: read-out: %Inh HIPK4
T3 sequence (Q8NE63 1-616): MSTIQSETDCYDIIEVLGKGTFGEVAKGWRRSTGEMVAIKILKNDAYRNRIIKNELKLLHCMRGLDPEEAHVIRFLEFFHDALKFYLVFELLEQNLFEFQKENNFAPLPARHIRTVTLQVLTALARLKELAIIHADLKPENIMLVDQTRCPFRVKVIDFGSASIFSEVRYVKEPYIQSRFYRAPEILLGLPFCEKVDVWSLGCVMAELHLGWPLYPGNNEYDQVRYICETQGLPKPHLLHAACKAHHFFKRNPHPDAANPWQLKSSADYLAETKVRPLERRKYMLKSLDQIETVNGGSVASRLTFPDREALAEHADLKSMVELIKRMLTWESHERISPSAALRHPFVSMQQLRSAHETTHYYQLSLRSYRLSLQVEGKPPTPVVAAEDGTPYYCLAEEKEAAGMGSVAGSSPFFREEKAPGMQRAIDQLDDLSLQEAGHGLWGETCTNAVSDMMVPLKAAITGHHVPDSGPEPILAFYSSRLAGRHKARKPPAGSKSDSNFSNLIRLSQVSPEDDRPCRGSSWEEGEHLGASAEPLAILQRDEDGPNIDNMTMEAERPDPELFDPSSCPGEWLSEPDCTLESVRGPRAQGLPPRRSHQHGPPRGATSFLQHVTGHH

BRAF, sequence (P15056 whole entry): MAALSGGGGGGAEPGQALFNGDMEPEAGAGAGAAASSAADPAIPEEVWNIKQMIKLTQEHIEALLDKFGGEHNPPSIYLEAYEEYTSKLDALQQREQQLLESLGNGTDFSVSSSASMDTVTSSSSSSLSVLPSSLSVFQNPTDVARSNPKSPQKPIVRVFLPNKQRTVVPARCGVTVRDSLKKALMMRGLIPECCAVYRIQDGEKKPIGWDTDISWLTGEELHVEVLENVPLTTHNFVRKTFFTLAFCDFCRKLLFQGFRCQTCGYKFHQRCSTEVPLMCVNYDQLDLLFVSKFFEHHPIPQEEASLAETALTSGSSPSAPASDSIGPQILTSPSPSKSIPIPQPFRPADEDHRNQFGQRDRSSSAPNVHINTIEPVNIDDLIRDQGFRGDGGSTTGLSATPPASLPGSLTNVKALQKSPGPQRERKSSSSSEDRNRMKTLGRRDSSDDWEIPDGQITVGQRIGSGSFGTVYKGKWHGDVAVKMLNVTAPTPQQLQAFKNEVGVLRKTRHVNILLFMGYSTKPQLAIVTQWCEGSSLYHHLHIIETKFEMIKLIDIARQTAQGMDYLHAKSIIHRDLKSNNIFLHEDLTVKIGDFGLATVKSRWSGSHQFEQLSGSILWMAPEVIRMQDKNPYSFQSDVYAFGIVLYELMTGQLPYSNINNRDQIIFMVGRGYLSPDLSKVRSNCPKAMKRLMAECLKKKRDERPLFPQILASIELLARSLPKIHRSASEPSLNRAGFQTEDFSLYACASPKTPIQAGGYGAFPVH
AMPK-alpha1, sequence (Q13131 whole entry): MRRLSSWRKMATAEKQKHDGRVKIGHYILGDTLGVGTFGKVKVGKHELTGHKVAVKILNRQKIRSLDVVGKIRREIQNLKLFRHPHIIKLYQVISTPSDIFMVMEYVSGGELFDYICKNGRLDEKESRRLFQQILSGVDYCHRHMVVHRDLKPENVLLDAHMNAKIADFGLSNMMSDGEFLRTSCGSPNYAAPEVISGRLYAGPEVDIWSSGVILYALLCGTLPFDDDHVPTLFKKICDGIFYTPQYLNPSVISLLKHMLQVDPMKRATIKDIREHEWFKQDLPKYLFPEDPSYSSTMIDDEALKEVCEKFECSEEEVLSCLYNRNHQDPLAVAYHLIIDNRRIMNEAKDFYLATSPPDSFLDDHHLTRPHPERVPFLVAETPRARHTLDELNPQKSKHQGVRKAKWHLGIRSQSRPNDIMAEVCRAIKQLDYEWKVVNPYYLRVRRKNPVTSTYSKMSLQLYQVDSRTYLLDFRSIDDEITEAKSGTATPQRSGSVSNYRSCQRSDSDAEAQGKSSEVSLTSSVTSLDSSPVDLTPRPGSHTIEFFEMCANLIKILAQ

Q: For Cn1cc(-c2cnc(N)c3c(-c4ccc5c(c4)CCN5C(=O)Cc4ccccc4)csc23)cn1 [UNC10225012A], which inhibition at 1 µM [1] is on record?
A: 17%

Q: What about the inhibition at 1 µM [2] of the same compound?
A: 0%

Q: And the inhibition at 1 µM [3]?
A: 35%

Q: And the inhibition at 1 µM [4]?
A: 0%

Q: And the inhibition at 1 µM [5]?
A: 0%

Q: For CS(=O)(=O)Cc1ccc(Nc2nccc(-c3c(-c4cccc(NC(=O)C5CCCCC5)c4)nn4ncccc34)n2)cc1 [UNC10225159A], which inhibition at 1 µM [1] is on record?
A: 2%

Q: What about the inhibition at 1 µM [2] of the same compound?
A: 20%

Q: And the inhibition at 1 µM [3]?
A: 38%

Q: And the inhibition at 1 µM [4]?
A: 0%

Q: What about the inhibition at 1 µM [5] of the same compound?
A: 0%

Q: For Cc1ccc(NC(=O)Nc2cccc(C(F)(F)F)c2)cc1 [UNC10225187A], which inhibition at 1 µM [1] is on record?
A: 0%

Q: What about the inhibition at 1 µM [2] of the same compound?
A: 0%

Q: And the inhibition at 1 µM [3]?
A: 0%

Q: And the inhibition at 1 µM [4]?
A: 0%

Q: What about the inhibition at 1 µM [5] of the same compound?
A: 0%

Q: For COc1cccc(OC)c1C(=O)Nc1cccc(-c2nn3ccccc3c2-c2ccnc(Nc3cccc(F)c3)n2)c1 [UNC10225310A], which inhibition at 1 µM [1] is on record?
A: 25%

Q: And the inhibition at 1 µM [2]?
A: 17%

Q: And the inhibition at 1 µM [3]?
A: 0%

Q: What about the inhibition at 1 µM [4] of the same compound?
A: 0%

Q: What about the inhibition at 1 µM [5] of the same compound?
A: 84%

Q: With O=c1cc(N2CCOCC2)nc2n(Cc3cccc(Cl)c3Cl)c(C3CC3)nn12 [UNC10225469A] as the compound, how does the inhibition at 1 µM [1] read?
A: 5%

Q: What about the inhibition at 1 µM [2] of the same compound?
A: 0%

Q: What about the inhibition at 1 µM [3] of the same compound?
A: 0%

Q: And the inhibition at 1 µM [4]?
A: 0%

Q: What about the inhibition at 1 µM [5] of the same compound?
A: 0%
